From ChEMBL document CHEMBL1201862, “PubChem BioAssay data set” (2004)
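Tested at 5 concentrations; 48 h exposure; 96-well plates; endpoints linearly interpolated, else capped at highest concentration. The concentration for 50% growth inhibition is given as GI50.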 Activity calls are given as the source filed them. No stated cut-off is given here; in the data, active = GI50 up to about 1.1 µM and inactive = higher.

Key:
Test in all cases: NCI tumour cell line growth inhibition, 48 h
786-0 = system: 786-0
A498 = system: A498
A549 = system: A549
ACHN = system: ACHN
BT-549 = system: BT-549
CAKI-1 = system: CAKI-1
CCRF-CEM = system: CCRF-CEM
COLO 205 = system: COLO 205
DU-145 = system: DU-145
EKVX = system: EKVX
HCC 2998 = system: HCC 2998
HCT-116 = system: HCT-116
HCT-15 = system: HCT-15
HL-60 = system: HL-60
HOP-62 = system: HOP-62
HOP-92 = system: HOP-92
HT-29 = system: HT-29
Hs-578T = system: Hs-578T
IGROV-1 = system: IGROV-1
K562 = system: K562
KM12 = system: KM12
LOX IMVI = system: LOX IMVI
M14 = system: M14
MCF7 = system: MCF7
MDA-MB-231 = system: MDA-MB-231
MDA-MB-435 = system: MDA-MB-435
MDA-N = system: MDA-N
MOLT-4 = system: MOLT-4
NCI-H226 = system: NCI-H226
NCI-H23 = system: NCI-H23
NCI-H460 = system: NCI-H460
NCI-H522 = system: NCI-H522
OVCAR-3 = system: OVCAR-3
OVCAR-4 = system: OVCAR-4
OVCAR-5 = system: OVCAR-5
OVCAR-8 = system: OVCAR-8
PC-3 = system: PC-3
RPMI-8226 = system: RPMI-8226
RXF 393 = system: RXF 393
SF-268 = system: SF-268
SF-295 = system: SF-295
SF-539 = system: SF-539
SK-MEL-28 = system: SK-MEL-28
SK-MEL-2 = system: SK-MEL-2
SK-MEL-5 = system: SK-MEL-5
SK-OV-3 = system: SK-OV-3
SN12C = system: SN12C
SNB-19 = system: SNB-19
SNB-75 = system: SNB-75
SR = system: SR
SW-620 = system: SW-620
T47D = system: T47D
TK-10 = system: TK-10
U-251 = system: U-251
UACC-257 = system: UACC-257
UACC-62 = system: UACC-62
UO-31 = system: UO-31
Malme-3M = system: Malme-3M
NCI/ADR-RES = system: NCI/ADR-RES

For `CC(=O)OC1CC(O)CC2=CCC3C4CCC(C(C)(O)C(O)CC5COC(=O)C5C)C4(C)CCC3C21C` (configuration not stated), the GI50 (786-0) was > 25 µM (inactive), the GI50 (A498) was > 25 µM (inactive) and the GI50 (A549) was > 25 µM (inactive). The GI50 (ACHN) was > 25 µM (inactive), the GI50 (BT-549) was > 25 µM (inactive) and the GI50 (CAKI-1) was 8.43 µM (inactive). For the same compound, the GI50 (CCRF-CEM) was 16.5 µM (inactive), the GI50 (COLO 205) was > 25 µM (inactive) and the GI50 (DU-145) was > 25 µM (inactive). For the same compound, the GI50 (EKVX) was 8.89 µM (inactive), the GI50 (HCC 2998) was > 25 µM (inactive) and the GI50 (HCT-116) was 15.2 µM (inactive). The GI50 (HCT-15) was > 25 µM, the GI50 (HL-60) was 4.39 µM (inactive) and the GI50 (HOP-62) was > 25 µM (inactive). For the same compound, the GI50 (HOP-92) was > 25 µM (inactive), the GI50 (HT-29) was > 25 µM (inactive) and the GI50 (Hs-578T) was 10.3 µM (inactive). The GI50 (IGROV-1) was > 25 µM (inactive), the GI50 (K562) was 18.4 µM (inactive) and the GI50 (KM12) was > 25 µM (inactive). For the same compound, the GI50 (LOX IMVI) was > 25 µM (inactive), the GI50 (M14) was > 25 µM (inactive) and the GI50 (MCF7) was > 25 µM (inactive). For the same compound, the GI50 (MDA-MB-231) was 13 µM (inactive), the GI50 (MDA-MB-435) was > 25 µM (inactive) and the GI50 (MDA-N) was > 25 µM (inactive). For the same compound, the GI50 (MOLT-4) was > 25 µM (inactive), the GI50 (NCI-H226) was 12.1 µM (inactive) and the GI50 (NCI-H23) was > 25 µM (inactive). For the same compound, the GI50 (NCI-H460) was > 25 µM (inactive), the GI50 (NCI-H522) was 12.8 µM (inactive) and the GI50 (OVCAR-3) was > 25 µM (inactive). For the same compound, the GI50 (OVCAR-4) was > 25 µM (inactive), the GI50 (OVCAR-5) was > 25 µM (inactive) and the GI50 (OVCAR-8) was > 25 µM (inactive). The GI50 (PC-3) was > 25 µM (inactive), the GI50 (RPMI-8226) was 14.6 µM (inactive) and the GI50 (RXF 393) was > 25 µM (inactive). For the same compound, the GI50 (SF-268) was > 25 µM (inactive), the GI50 (SF-295) was > 25 µM (inactive) and the GI50 (SF-539) was > 25 µM (inactive). The GI50 (SK-MEL-28) was 24.5 µM (inactive), the GI50 (SK-MEL-2) was > 25 µM (inactive) and the GI50 (SK-MEL-5) was 7.66 µM (inactive). The GI50 (SK-OV-3) was > 25 µM (inactive), the GI50 (SN12C) was > 25 µM (inactive) and the GI50 (SNB-19) was > 25 µM (inactive). The GI50 (SNB-75) was 7.08 µM (inactive), the GI50 (SR) was 13.6 µM (inactive) and the GI50 (SW-620) was > 25 µM (inactive). The GI50 (T47D) was > 25 µM (inactive), the GI50 (TK-10) was > 25 µM (inactive) and the GI50 (U-251) was > 25 µM (inactive). For the same compound, the GI50 (UACC-257) was > 25 µM (inactive), the GI50 (UACC-62) was 21.4 µM (inactive) and the GI50 (UO-31) was 8.59 µM (inactive).
For `CCc1ccc(Nc2cc(=O)n(C)c(SCc3ccccc3)n2)cc1`, the GI50 (786-0) was 17.5 µM (inactive), the GI50 (A498) was 14.5 µM (inactive) and the GI50 (A549) was 29 µM (inactive). The GI50 (ACHN) was 75.3 µM (inactive), the GI50 (BT-549) was > 100 µM (inactive) and the GI50 (CAKI-1) was > 100 µM (inactive). For the same compound, the GI50 (CCRF-CEM) was 78 µM (inactive), the GI50 (COLO 205) was 12.7 µM (inactive) and the GI50 (DU-145) was > 100 µM (inactive). For the same compound, the GI50 (EKVX) was 60.5 µM (inactive), the GI50 (HCT-116) was 18.2 µM (inactive) and the GI50 (HCT-15) was 62.2 µM. The GI50 (HL-60) was 39.8 µM (inactive), the GI50 (HOP-62) was 69.3 µM (inactive) and the GI50 (HOP-92) was 20.3 µM (inactive). For the same compound, the GI50 (HT-29) was 21.9 µM (inactive), the GI50 (Hs-578T) was 97.3 µM (inactive) and the GI50 (IGROV-1) was 83.9 µM (inactive). For the same compound, the GI50 (K562) was > 100 µM (inactive), the GI50 (KM12) was 66.4 µM (inactive) and the GI50 (LOX IMVI) was 33 µM (inactive). The GI50 (M14) was > 100 µM (inactive), the GI50 (MCF7) was 28.6 µM (inactive) and the GI50 (MDA-MB-231) was 59.7 µM (inactive). For the same compound, the GI50 (MDA-MB-435) was 80.4 µM (inactive), the GI50 (MDA-N) was > 100 µM (inactive) and the GI50 (MOLT-4) was > 100 µM (inactive). The GI50 (Malme-3M) was 57.3 µM (inactive), the GI50 (NCI-H226) was 33.4 µM (inactive) and the GI50 (NCI-H23) was > 100 µM (inactive). The GI50 (NCI-H522) was 36.1 µM (inactive), the GI50 (NCI/ADR-RES) was > 100 µM (inactive) and the GI50 (OVCAR-3) was 29.4 µM (inactive). The GI50 (OVCAR-5) was 30.8 µM (inactive), the GI50 (OVCAR-8) was > 100 µM (inactive) and the GI50 (RPMI-8226) was > 10 µM (inactive). The GI50 (RXF 393) was 23.1 µM (inactive), the GI50 (SF-268) was 97.7 µM (inactive) and the GI50 (SF-295) was 57.4 µM (inactive). The GI50 (SF-539) was 30.2 µM (inactive), the GI50 (SK-MEL-2) was > 100 µM (inactive) and the GI50 (SK-MEL-5) was 51.2 µM (inactive). The GI50 (SK-OV-3) was 85.1 µM (inactive), the GI50 (SN12C) was 20 µM (inactive) and the GI50 (SNB-19) was 52.6 µM (inactive). The GI50 (SNB-75) was > 100 µM (inactive), the GI50 (SR) was 35.7 µM (inactive) and the GI50 (SW-620) was 41.6 µM (inactive). The GI50 (T47D) was 95.3 µM (inactive), the GI50 (TK-10) was > 100 µM (inactive) and the GI50 (UACC-257) was > 100 µM (inactive). The GI50 (UACC-62) was > 100 µM (inactive) and the GI50 (UO-31) was > 100 µM (inactive).
For `c1cncc(C(Nc2cccc3cccnc23)Nc2cccc3cccnc23)c1`, the GI50 (786-0) was > 100 µM (inactive), the GI50 (A549) was > 100 µM (inactive) and the GI50 (ACHN) was > 100 µM (inactive). The GI50 (BT-549) was > 100 µM (inactive), the GI50 (CAKI-1) was 53 µM (inactive) and the GI50 (CCRF-CEM) was 66.1 µM (inactive). The GI50 (COLO 205) was > 100 µM (inactive), the GI50 (DU-145) was > 100 µM (inactive) and the GI50 (EKVX) was 69.7 µM (inactive). For the same compound, the GI50 (HCC 2998) was > 100 µM (inactive), the GI50 (HCT-116) was > 100 µM (inactive) and the GI50 (HCT-15) was > 100 µM. For the same compound, the GI50 (HL-60) was 36.3 µM (inactive), the GI50 (HOP-62) was > 100 µM (inactive) and the GI50 (HOP-92) was > 100 µM (inactive). For the same compound, the GI50 (HT-29) was > 100 µM (inactive), the GI50 (Hs-578T) was > 100 µM (inactive) and the GI50 (IGROV-1) was > 100 µM (inactive). The GI50 (K562) was > 100 µM (inactive), the GI50 (KM12) was > 100 µM (inactive) and the GI50 (LOX IMVI) was > 100 µM (inactive). For the same compound, the GI50 (M14) was > 100 µM (inactive), the GI50 (MCF7) was > 100 µM (inactive) and the GI50 (MDA-MB-231) was > 100 µM (inactive). The GI50 (MDA-MB-435) was > 100 µM (inactive), the GI50 (MDA-N) was > 100 µM (inactive) and the GI50 (NCI-H23) was > 100 µM (inactive). For the same compound, the GI50 (NCI-H460) was > 100 µM (inactive), the GI50 (NCI-H522) was 28.8 µM (inactive) and the GI50 (NCI/ADR-RES) was > 100 µM (inactive). For the same compound, the GI50 (OVCAR-3) was > 100 µM (inactive), the GI50 (OVCAR-5) was > 100 µM (inactive) and the GI50 (OVCAR-8) was > 100 µM (inactive). The GI50 (PC-3) was > 100 µM (inactive), the GI50 (RPMI-8226) was 55.8 µM (inactive) and the GI50 (RXF 393) was 77.3 µM (inactive). The GI50 (SF-268) was 50.5 µM (inactive), the GI50 (SF-295) was > 100 µM (inactive) and the GI50 (SF-539) was > 100 µM (inactive). The GI50 (SK-MEL-2) was > 100 µM (inactive), the GI50 (SK-MEL-5) was > 100 µM (inactive) and the GI50 (SK-OV-3) was > 100 µM (inactive). For the same compound, the GI50 (SN12C) was > 100 µM (inactive), the GI50 (SNB-19) was > 100 µM (inactive) and the GI50 (SNB-75) was 37.8 µM (inactive). The GI50 (SW-620) was > 100 µM (inactive), the GI50 (T47D) was > 100 µM (inactive) and the GI50 (TK-10) was > 100 µM (inactive). The GI50 (U-251) was > 100 µM (inactive), the GI50 (UACC-257) was > 100 µM (inactive) and the GI50 (UACC-62) was > 100 µM (inactive). For the same compound, the GI50 (UO-31) was 83.8 µM (inactive).
